Results taken from patent US5858700A, “Process for the isolation and purification of lycopene crystals” (Kemin Foods, LC, priority 1997, dated 1999).

Columns and labels:
[1] = tested on: rat; settings: oral; cited from earlier work
[2] = tested on: prostate cancer; settings: consumption of lycopene; Giovannucci et al. 1995; cited from earlier work
[3] = Pigment (lycopene) stability in freeze-dried tomato skins on 6-day storage at 30° C.; type: physicochemical; settings: 6 days at 30° C., hexanes extract, spectrophotometric
Excerpt: Wet tomato skins from Siagra Co., Chengmai, Thailand (8.3 kg of the 50 lb batch used in Example 1) were freeze-dried for three days in a tray freeze-dryer (FTS Systems Inc., Stone Ridge N.Y.) to obtain freeze-dried tomato skins (2.08 kg, 24.3 percent moisture) from which five samples were taken.
The first sample of freeze-dried tomato skins was ground in a rotary meat grinder, which separated the seeds from the tomato skins. Further separation using sieves and air separation produced samples that were substantially only from the skins or the seeds of the tomatoes. The skin and seed samples were ground separately in a CYCLOTEC TECATOR™ mill (Fisher Scientific, Pittsburgh Pa.) fitted with a 0.5 mm screen, and found to contain 1328 milligrams of pigment per kilogram of tomato skins and 97 milligrams of pigment per kilogram of tomato seeds. The seeds thus contribute little to the total extractable pigment yet constitute a large portion of the total sample mass.
A second sample was left in flake form, and was dried for 6 days at 30° C. A third sample was ground in a WILEY™ mill (Fisher Scientific, Pittsburgh Pa.) fitted with a 2 mm screen and dried for 6 days at 30° C. A fourth sample was ground in a WILEY™ mill fitted with a 1 mm screen and dried for 6 days at 30° C. A fifth sample was ground in a CYCLOTEC™ mill fitted with a 0.5 mm screen and dried for 6 days at 30° C.
At the end of the treatment, all of the samples were extracted with hexanes, analyzed spectrophotometrically, and compared with the amount of lycopene present in the freeze-dried flakes before the 6-day heat treatment. The samples ground in the CYCLOTEC™ mill (<0.5 mm particles) and the WILEY™ mill (<1 mm and <2 mm particles) had more of the oxidized lycopene content than the non-ground (flake) sample: 36, 33, 36 and 25 percent pigment losses, respectively. However, none of the samples after 6 days had over 75 percent of the lycopene that was present before the treatment.

Row | Structure (SMILES) | LD50 [1] [mL/kg] | other results
1 | ClC(Cl)Cl [Chloroform] | 2.18 | 
2 | CC(C)=O [Acetone] | 10.7 | 
3 | CC(O)CO (stereo not shown) [Propylene Glycol, 1,2-propanediol] | 25 | 
4 | CCOC(C)=O [Ethyl Acetate] | 11.3 | 
5 | c1ccncc1 [Pyridine] | 1.58 | 
6 | CC(C)=CCC/C(C)=C/C=C/C(C)=C/C=C/C(C)=C/C=C/C=C(C)/C=C/C=C(C)/C=C/C=C(\C)CCC=C(C)C [lycopene, .psi.,.psi.-carotene] |  | risk of prostate cancer [2]: reduced risk of prostate cancer; pigment losses ([3]; CYCLOTEC mill, <0.5 mm particles): 36%; pigment losses ([3]; WILEY mill, <1 mm particles): 33%; pigment losses ([3]; WILEY mill, <2 mm particles): 36%; pigment losses ([3]; non-ground (flake) sample): 25%
